Measurements taken from US20230114728A1 (Venatorx Pharmaceuticals, Inc., priority 2019, published 2023).

What was measured:
E. coli K12 PBP4 = target: T1, E. coli K12 PBP4 (Escherichia coli, UniProt P24228); experiment: Bocillin-FL fluorescence polarization competition binding assay, E. coli PBP4; conditions: fluorescence polarization competition binding assay using Bocillin-FL; read-out: E. coli K12 PBP4 Potency (EC50)
T1 construct: made in house
From the text: Example I: Experimental Method for Penicillin-Binding Protein Binding Assays with Bocillin-FL Via Fluorescence Polarization
To determine the ability of boronic acid-based test PBP inhibitors to bind Penicillin Binding Proteins (PBPs), Bocillin-FL (fluorescently-labeled penicillin V; ThermoFisher Scientific) was used in a fluorescence polarization (FP) competition binding assay to assess inhibitor binding to PBP2, PBP3 or PBP4 from Escherichia coli (K12), PBP3 from Pseudomonas aeruginosa (PA01), PBP1a, PBP2 and PBP3 from Acinetobacter baumannii (ATCC 19606), and PBP2 from Neiserria gonorrheae (FA19). PBPs were cloned and purified as described previously (E. coli PBPs, King, D. T, et al., ACS Infectious Diseases 2015, 1, 175-184; P. aeruginosa PBP3, Han et. al., PNAS 2010, 107 (51), 22002-22007; A. baumannii PBPs, Penwell et. al., Antimicrob. Agents Chemother. 2015, 59 (3), 1680-1689; N. gonorrhoeae PBP2, Singh et. al., J Biol. Chem. 2019, 294 (38), 14020-14032). To establish assay conditions for competition binding, enzyme titration/saturation binding experiments were initially performed. Bocillin-FL was prepared at 0.2 μM in a buffer comprised of 50 mM Hepes (pH 8.0), 300 mM NaCl and 5% (v/v) glycerol for reactions with E. coli, P. aeruginosa and N. gonorrhoeae PBPs, and 25 mM Tris (pH 8.0), 200 mM NaCl and 10% (v/v) glycerol and 0.005% (v/v) Tween 20 for reactions with A. baumannii PBPs. Saturation binding was performed by mixing 40 μl of PBP solutions ranging in concentrations from 0-24 μM with 40 μl of the 0.2 μM Bocillin-FL solution, in individual wells of a black 384-well microplate. FP was measured immediately upon mixing (Excitation, 490 nm; Emission, 520 nm; g-factor, 0.96), using a Cytation3 (BioTek) microplate reader and measured continuously for up to 120 minutes. […] Bocillin-FL was added and the FP immediately measured for up to 60 minutes (90 minutes for E. coli PBP2). […]

E. coli K12 PBP1b = target: T2, E. coli K12 PBP1b (Escherichia coli, UniProt P02919); experiment: Radioligand competition binding assay with 14C-labeled boronic acid probe, E. coli PBP1b; conditions: competition binding assay using 14C-labeled boronic acid probe; read-out: E. coli K12 PBP1b EC50
T2 construct: made in house
T2 sequence (P02919 whole entry): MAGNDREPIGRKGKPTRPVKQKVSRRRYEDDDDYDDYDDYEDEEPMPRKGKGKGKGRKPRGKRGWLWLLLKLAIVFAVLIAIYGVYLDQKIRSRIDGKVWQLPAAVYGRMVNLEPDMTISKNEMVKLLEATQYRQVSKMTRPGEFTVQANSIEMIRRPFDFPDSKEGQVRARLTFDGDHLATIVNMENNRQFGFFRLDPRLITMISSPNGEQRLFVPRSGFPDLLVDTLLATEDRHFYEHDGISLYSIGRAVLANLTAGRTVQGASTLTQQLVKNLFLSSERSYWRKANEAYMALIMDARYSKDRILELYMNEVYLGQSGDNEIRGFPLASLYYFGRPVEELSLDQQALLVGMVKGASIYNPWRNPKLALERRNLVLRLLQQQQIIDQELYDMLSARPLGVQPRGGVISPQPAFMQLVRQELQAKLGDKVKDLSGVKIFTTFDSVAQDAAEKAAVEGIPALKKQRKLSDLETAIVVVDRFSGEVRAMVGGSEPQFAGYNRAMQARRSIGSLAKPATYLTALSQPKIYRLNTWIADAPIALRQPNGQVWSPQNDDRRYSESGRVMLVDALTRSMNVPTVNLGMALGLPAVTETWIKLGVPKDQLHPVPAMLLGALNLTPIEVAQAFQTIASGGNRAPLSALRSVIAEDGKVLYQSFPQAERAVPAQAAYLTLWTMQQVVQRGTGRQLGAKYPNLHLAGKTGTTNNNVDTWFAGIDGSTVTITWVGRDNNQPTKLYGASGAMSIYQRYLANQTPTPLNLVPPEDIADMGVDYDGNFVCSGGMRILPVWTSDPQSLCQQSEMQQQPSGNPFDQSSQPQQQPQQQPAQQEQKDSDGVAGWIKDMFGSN
From the text: Example II: Experimental Method to Assess Binding to Penicillin-Binding Proteins: Radioligand Competition Binding Assay
To determine the ability of boronic acid-based test PBP inhibitors to bind Penicillin Binding Proteins (PBPs), a radio-labelled boronic acid PBP inhibitor:
was used in competition binding assays to determine boronic acid PBP inhibitor binding to PBP1a or PBP1b from Escherichia coli. PBP1a and PBP1b were purified as described previously (Bertsche, U.; et al., J Biol. Chem. 2005, 280 (45), 38096-38101; Born, P.; et al., J Biol. Chem. 2006. 281 (37), 26985-26993). To establish assay conditions for competition binding, an enzyme titration/saturation binding experiment was performed. Saturation binding was performed in a buffer comprised of 20 mM Tris (pH 7.5), 500 mM NaCl and 0.1% (v/v) TritonX-100, with PBP1a/PBP1b at a final concentration of 0.1 μM and Compound A at final concentrations ranging from 0-100 μM. Mixtures were incubated for 60 minutes, then applied to Zeba Spin Desalting columns or plates (ThermoFisher Scientific) and centrifuged at 1000-1500×g for 2 minutes. The flow through, containing PBP bound with Compound A, was recovered and 100 μL mixed with 5 mL of UltimaGold liquid scintillation cocktail (Perkin Elmer), and the radioactivity counted using a Beckman Coulter LS 6500 Multipurpose scintillation counter. PBP binding of Compound A approached saturation at 20 μM of ^14C-labeled probe. The competition binding assay was validated using the beta-lactam ampicillin, with Compound A at a final concentration of 20 μM, PBP1a/PBP1b at a final concentration of 0.1 μM. PBP1a/PBP1b was incubated with ampicillin in a 96-well microplate for 60 minutes, then Compound A was added and the mixtures incubated for an additional 60 minutes. The mixtures were then applied to Zeba Spin desalting plates and centrifuged at 1000×g for 2 minutes. The flow through was recovered and 100 μl mixed with 5 ml of UltimaGold liquid scintillation cocktail and the radioactivity counted. […] Binding assays with boronic acid PBP inhibitors were performed in an identical fashion. […]

T1 sequence (P24228 21-477): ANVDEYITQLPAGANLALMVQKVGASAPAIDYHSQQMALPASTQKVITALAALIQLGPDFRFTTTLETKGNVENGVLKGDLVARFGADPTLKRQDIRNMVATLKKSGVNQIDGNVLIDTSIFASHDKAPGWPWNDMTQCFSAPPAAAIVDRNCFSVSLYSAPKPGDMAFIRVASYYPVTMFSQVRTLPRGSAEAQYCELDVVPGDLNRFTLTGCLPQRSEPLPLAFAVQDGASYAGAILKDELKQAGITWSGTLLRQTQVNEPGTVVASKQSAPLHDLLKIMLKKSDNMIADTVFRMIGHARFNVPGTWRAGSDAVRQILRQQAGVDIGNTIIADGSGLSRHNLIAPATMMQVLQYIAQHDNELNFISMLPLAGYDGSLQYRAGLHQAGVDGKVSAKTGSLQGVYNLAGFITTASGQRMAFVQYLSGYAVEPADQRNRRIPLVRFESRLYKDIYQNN

CCN1CCN(C(=O)NC(C(=O)N[C@H]2Cc3ccc(S)c(C(=O)O)c3OB2O)c2csc(N)n2)C(=O)C1=O (stereo partly drawn) [Example 54, (3R)-3-(2-(2-aminothiazol-4-yl)-2-(4-ethyl-2,3-dioxopiperazine-1-carboxamido)acetamido)-2-hydroxy-7-mercapto-3,4-dihydro-2H-benzo[e][1,2]oxaborinine-8-carboxylic acid]
EC50 (E. coli K12 PBP4): 30 to 500 µM
EC50 (E. coli K12 PBP1b): 10 to 100 µM

CCN1CCN(C(=O)NC(C(=O)N[C@H]2Cc3ccc(SCc4ccc(O)cc4)c(C(=O)O)c3OB2O)c2csc(N)n2)C(=O)C1=O (stereo partly drawn) [Example 55, (3R)-3-(2-(2-aminothiazol-4-yl)-2-(4-ethyl-2,3-dioxopiperazine-1-carboxamido)acetamido)-2-hydroxy-7-((4-hydroxybenzyl)thio)-3,4-dihydro-2H-benzo[e][1,2]oxaborinine-8-carboxylic acid]
EC50 (E. coli K12 PBP4): 30 to 500 µM
EC50 (E. coli K12 PBP1b): > 100 µM
